Here are results for 24 compounds from ChEMBL document CHEMBL4616703, “Benzoxazepine-Derived Selective, Orally Bioavailable Inhibitor of Human Acidic Mammalian Chitinase” (ACS Med Chem Lett, 2020).

One series addresses Chitotriosidase-1 (Homo sapiens, UniProt Q13231). Description: Inhibition of full length recombinant C-terminal His-taged human CHIT1 expressed in CHOK1 cells assessed as reduction in chitinolytic activity using 4-methylumbelliferyl-beta-D-N,N',N''-[…] as substrate incubated for 60 mins under shaking condition by microplate fluorometry analysis. Details: species or system CHO-K1.

A short description of series [1]: AUC (0 to infinity) in Sprague-Dawley rat at 10 mg/kg, po administered as single dose measured after 24 hrs by LC-MS/MS analysis. Details: dose 10 mg/kg, time infinity, route oral. It counts as ADME, organism-based. To be noted: in vivo.
Series [2] concerns the target T1, Voltage-gated inwardly rectifying potassium channel KCNH2 (Homo sapiens, UniProt Q12809). The experiment in a line: Displacement of Tracer Red from human ERG by fluorescence polarization assay. (In general: In fluorescence polarisation assays a small probe gives low polarisation when free and higher when bound to something large.)
Series [3] deals with Acidic mammalian chitinase (Homo sapiens, UniProt Q9BZP6). The experiment in a line: Inhibition of full length recombinant C-terminal His-tagged human acidic mammalian chitinase expressed in CHOK1 cells assessed as reduction in chitinolytic activity using 4-methylumbelliferyl-beta-D-N,N-diacetylchitobioside hydrate as substrate incubated for 60 mins under shaking condition by microplate fluorometry analysis. Details: species or system CHO-K1.

Series [4] in a line: Cmax in Sprague-Dawley rat at 10 mg/kg, po administered as single dose measured after 24 hrs by LC-MS/MS analysis. It counts as ADME, organism-based. The arrangement: dose 10 mg/kg, route oral. The following applies: in vivo.
A short description of series [5]: Clearance in BALB/c mouse at 3 mg/kg, iv administered as single bolus dose measured after 24 hrs by LC-MS/MS analysis. It counts as ADME, organism-based. To be noted: in vivo.
Series [6] is described as follows: Volume of distribution at steady state in BALB/c mouse at 3 mg/kg, iv administered as single bolus dose measured after 24 hrs by LC-MS/MS analysis. It counts as ADME, organism-based. The following applies: in vivo, read-out: Vdss.
A short description of series [7]: AUC (0 to infinity) in BALB/c mouse at 3 mg/kg, iv administered as single dose measured after 24 hrs by LC-MS/MS analysis. The class given is ADME, organism-based. The arrangement: dose 3 mg/kg, route intravenous, time infinity. To be noted: in vivo.
A short description of series [8]: Cmax in BALB/c mouse at 3 mg/kg, iv administered as single bolus dose measured after 24 hrs by LC-MS/MS analysis. The following applies: in vivo. The arrangement: dose 3 mg/kg, route intravenous. The class given is ADME, organism-based.
Series [9] in a line: Half life in BALB/c mouse at 3 mg/kg, iv administered as single bolus dose measured after 24 hrs by LC-MS/MS analysis. It counts as ADME, organism-based. To be noted: in vivo.
Series [10] in a line: Mean residence time in BALB/c mouse at 3 mg/kg, iv administered as single bolus dose measured after 24 hrs by LC-MS/MS analysis. It counts as ADME, organism-based. To be noted: in vivo.
Series [11] is described as follows: AUC (0 to infinity) in BALB/c mouse at 10 mg/kg, po administered as single dose measured after 24 hrs by LC-MS/MS analysis. To be noted: in vivo. The arrangement: dose 10 mg/kg, route oral, time infinity. It counts as ADME, organism-based.
Series [12] in a line: Cmax in BALB/c mouse at 10 mg/kg, po administered as single dose measured after 24 hrs by LC-MS/MS analysis. It counts as ADME, organism-based. To be noted: in vivo. The arrangement: dose 10 mg/kg, route oral.
Series [13] is described as follows: Tmax in BALB/c mouse at 10 mg/kg, po administered as single dose measured after 24 hrs by LC-MS/MS analysis. It counts as ADME, organism-based. To be noted: in vivo.
Series [14] can be described thus: Half life in BALB/c mouse at 10 mg/kg, po administered as single dose measured after 24 hrs by LC-MS/MS analysis. The class given is ADME, organism-based. The following applies: in vivo.
Series [15] in a line: Mean residence time in BALB/c mouse at 10 mg/kg, po administered as single dose measured after 24 hrs by LC-MS/MS analysis. The class given is ADME, organism-based. The following applies: in vivo.
Series [16] in a line: Oral bioavailability in BALB/c mouse at 10 mg/kg administered as single dose measured after 24 hrs by LC-MS/MS analysis. The class given is ADME, organism-based. The following applies: in vivo.
Series [17] in a line: AUC(0 to infinity) in Sprague-Dawley rat at 10 mg/kg, po administered as single dose measured after 24 hrs by LC-MS/MS analysis. The class given is ADME, organism-based. Details: dose 10 mg/kg, route oral, time infinity. The following applies: in vivo.
Series [18] in a line: Tmax in Sprague-Dawley rat at 10 mg/kg, po administered as single dose measured after 24 hrs by LC-MS/MS analysis. It counts as ADME, organism-based. To be noted: in vivo.
Series [19] in a line: Half life in Sprague-Dawley rat at 10 mg/kg, po administered as single dose measured after 24 hrs by LC-MS/MS analysis. The class given is ADME, organism-based. The following applies: in vivo.
The nature of series [20]: Mean residence time in Sprague-Dawley rat at 10 mg/kg, po administered as single dose measured after 24 hrs by LC-MS/MS analysis. It counts as ADME, organism-based. The following applies: in vivo.
Series [21] has as its target T1, Voltage-gated inwardly rectifying potassium channel KCNH2. Description: Inhibition of human ERG expressed in CHO-K1 cells by automated Qpatch-clamp assay. The class given is cell-based. Background: In patch-clamp work, channel activity is measured electrically.

T1 sequence (Q12809 whole entry): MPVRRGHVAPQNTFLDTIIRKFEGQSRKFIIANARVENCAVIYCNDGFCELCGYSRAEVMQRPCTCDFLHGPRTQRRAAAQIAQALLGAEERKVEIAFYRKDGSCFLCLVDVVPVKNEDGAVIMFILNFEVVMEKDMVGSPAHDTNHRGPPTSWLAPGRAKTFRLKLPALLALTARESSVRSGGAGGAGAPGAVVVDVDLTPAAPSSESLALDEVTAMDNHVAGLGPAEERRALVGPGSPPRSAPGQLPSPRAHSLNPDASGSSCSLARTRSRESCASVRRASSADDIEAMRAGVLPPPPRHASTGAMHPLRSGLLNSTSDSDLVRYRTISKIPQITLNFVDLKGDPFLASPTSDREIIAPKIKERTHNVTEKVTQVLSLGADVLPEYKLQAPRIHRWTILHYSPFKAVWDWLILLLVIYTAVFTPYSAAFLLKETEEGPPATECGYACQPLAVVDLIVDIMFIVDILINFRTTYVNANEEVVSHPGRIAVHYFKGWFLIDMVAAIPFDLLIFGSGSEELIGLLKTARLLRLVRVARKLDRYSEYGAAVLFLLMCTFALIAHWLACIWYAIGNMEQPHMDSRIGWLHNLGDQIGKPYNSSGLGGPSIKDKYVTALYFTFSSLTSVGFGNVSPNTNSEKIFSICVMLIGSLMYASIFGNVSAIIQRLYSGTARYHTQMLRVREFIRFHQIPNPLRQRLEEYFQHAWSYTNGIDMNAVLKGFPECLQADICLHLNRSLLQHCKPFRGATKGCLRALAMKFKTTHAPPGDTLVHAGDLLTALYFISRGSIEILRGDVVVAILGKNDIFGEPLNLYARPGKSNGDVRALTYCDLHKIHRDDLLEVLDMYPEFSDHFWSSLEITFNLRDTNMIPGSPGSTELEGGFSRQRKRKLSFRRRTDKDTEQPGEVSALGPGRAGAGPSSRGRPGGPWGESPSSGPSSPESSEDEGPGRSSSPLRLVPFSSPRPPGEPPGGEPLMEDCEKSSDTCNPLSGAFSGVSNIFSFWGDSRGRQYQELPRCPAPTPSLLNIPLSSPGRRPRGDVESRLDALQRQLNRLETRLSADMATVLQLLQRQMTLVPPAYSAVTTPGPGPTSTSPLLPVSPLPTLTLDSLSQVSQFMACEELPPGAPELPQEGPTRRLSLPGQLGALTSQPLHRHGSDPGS
Acidic mammalian chitinase, sequence (Q9BZP6 whole entry): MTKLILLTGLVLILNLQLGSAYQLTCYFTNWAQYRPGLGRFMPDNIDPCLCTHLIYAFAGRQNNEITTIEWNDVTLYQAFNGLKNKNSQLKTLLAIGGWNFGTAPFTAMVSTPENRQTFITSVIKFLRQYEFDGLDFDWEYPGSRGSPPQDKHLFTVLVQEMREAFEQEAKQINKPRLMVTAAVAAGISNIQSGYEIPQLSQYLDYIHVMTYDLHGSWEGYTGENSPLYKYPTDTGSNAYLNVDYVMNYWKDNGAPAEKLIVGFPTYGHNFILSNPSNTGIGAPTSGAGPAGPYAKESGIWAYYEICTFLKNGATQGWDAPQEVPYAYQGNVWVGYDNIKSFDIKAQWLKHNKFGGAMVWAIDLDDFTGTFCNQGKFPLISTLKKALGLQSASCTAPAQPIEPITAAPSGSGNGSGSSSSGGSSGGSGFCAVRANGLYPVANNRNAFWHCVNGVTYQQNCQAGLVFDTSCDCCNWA
Chitotriosidase-1, sequence (Q13231 whole entry): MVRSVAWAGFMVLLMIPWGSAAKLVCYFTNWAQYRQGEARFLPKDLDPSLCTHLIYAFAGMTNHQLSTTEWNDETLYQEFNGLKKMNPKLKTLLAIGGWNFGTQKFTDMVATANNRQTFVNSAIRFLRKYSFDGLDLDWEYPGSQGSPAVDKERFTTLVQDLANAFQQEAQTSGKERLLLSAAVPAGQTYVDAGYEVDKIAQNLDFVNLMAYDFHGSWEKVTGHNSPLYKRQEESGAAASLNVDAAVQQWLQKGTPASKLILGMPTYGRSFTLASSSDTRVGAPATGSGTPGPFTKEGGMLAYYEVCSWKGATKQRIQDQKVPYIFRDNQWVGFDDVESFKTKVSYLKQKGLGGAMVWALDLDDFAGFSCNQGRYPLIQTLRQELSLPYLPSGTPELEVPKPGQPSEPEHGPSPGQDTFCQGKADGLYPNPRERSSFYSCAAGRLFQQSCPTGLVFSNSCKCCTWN

In general, IC50 refers to the point on the concentration scale where inhibition reaches its midpoint. One may read the AUC(0-inf) as total exposure, with the tail of the curve extrapolated. For the compound `CC(C)CN(CCc1ccc(Cl)cc1)C1CCN(c2nc(N)n[nH]2)CC1`, the IC50 on Chitotriosidase-1 was 229 nM. The AUC(0-inf) in series [1] was found to be 90 ng·h/mL.

For the compound `Nc1n[nH]c(N2CCC(N(CCc3ccc(Cl)cc3)Cc3ccccc3)CC2)n1`, the half-inhibitory concentration (IC50) at Chitotriosidase-1 turned out to be 122 nM.

`Nc1n[nH]c(N2CCC(N(CCc3ccc(Cl)cc3)Cc3ccccc3Cl)CC2)n1`: the IC50 at Chitotriosidase-1 amounted to 104 nM; in series [2], 2000 nM. The total exposure AUC(0-inf) in series [1] is 1400 ng·h/mL.

One may read the Cmax as the highest concentration seen after dosing. On to `Nc1nc(N2CCC(N(CCc3ccc(Cl)cc3)Cc3ccc(F)cc3Cl)CC2)n[nH]1`, for which the half-inhibitory concentration (IC50) in [3] worked out at 5 nM; on Chitotriosidase-1 it was 200 nM. Moreover, the AUC(0-inf) in series [1] was found to be 7500 ng·h/mL. In addition, the highest level in series [4] (Cmax) was 690 ng/mL.

Consider `Nc1nc(N2CCC(N(CCc3ccc(Cl)cc3)Cc3cccc(O)c3)CC2)n[nH]1`, for which the half-inhibitory concentration (IC50) in series [3] was determined as 2 nM; at Chitotriosidase-1 it was 79 nM; in series [2], 150 nM.

With `CN1C[C@H](Cc2ccc(Cl)cc2)N(C2CCN(c3nnc(N)[nH]3)CC2)Cc2ccccc21`, the IC50 is 1.4 nM in series [3], 275 nM on Chitotriosidase-1 and 3200 nM in series [2].

As to `Nc1nc(N2CCC(N(CCc3ccc(Cl)cc3)Cc3ccncc3Cl)CC2)n[nH]1`, the half-maximal inhibitory concentration (IC50) in series [3] amounted to 15 nM; at Chitotriosidase-1, 620 nM; in series [2], 6400 nM. For the same compound, the AUC(0-inf) in series [1] was found to be 430 ng·h/mL. The Cmax in [4] was 130 ng/mL.

Consider `Nc1nc(N2CCC(N(CCc3ccc(Cl)cc3)Cc3ccccc3O)CC2)n[nH]1`, for which the IC50 in [3] came out at 2 nM; on Chitotriosidase-1 it was 49 nM; in series [2], 100 nM.

On to `Nc1nnc(N2CCC(N3Cc4cc(Cl)cc(Cl)c4OC[C@@H]3Cc3ccc(Cl)cc3)CC2)[nH]1`, for which the IC50 in [3] was 68 nM; on Chitotriosidase-1, over 20000 nM; in [2], 6000 nM.

Take `Nc1nnc(N2CCC(N3Cc4cc(Cl)ccc4OC[C@@H]3Cc3ccc(Cl)cc3)CC2)[nH]1`: the results for the IC50 (in series [3]; at Chitotriosidase-1; in series [2]) were 8 nM, 2300 nM and 6700 nM, respectively.

`CN(C1CCN(c2n[nH]c(N)n2)CC1)[C@H](COc1ccc(Cl)cc1)Cc1ccc(Cl)cc1`: the IC50 was 580 nM in [3] and 16000 nM at Chitotriosidase-1.

One may read the clearance as the volume of plasma or blood freed of the substance per unit of time. High values mean efficient removal, low ones inefficient removal. As a reminder, the half-life is the time in which the quantity being followed falls by half. A lower half-life goes with fast loss. The MRT is the average time that molecules of a dose stay in the body. The Tmax is the time at which the peak concentration occurs. Usually bioavailability stands for the share of a dose that reaches the circulation, judged against a reference dose that is usually intravenous. In series [5], `Nc1nnc(N2CCC(N3Cc4ccccc4OC[C@@H]3Cc3ccc(Cl)cc3)CC2)[nH]1` showed a clearance of 16.7 mL/min/kg. Besides, the Vd in [6] is 0.35 L/kg. Further, the half-inhibitory concentration (IC50) in [3] turned out to be 7 nM; at Chitotriosidase-1 it was 915 nM; in series [2], 22000 nM; in series [21], 23000 nM. For the same compound, the results for the AUC(0-inf) in [7], in series [11] and in series [17] were 2900 ng·h/mL, 3900 ng·h/mL and 22500 ng·h/mL, respectively. Moreover, the Cmax is 9500 ng/mL in [8], 3100 ng/mL in series [12] and 3400 ng/mL in series [4]. The half-life in [9] is 84 min; in series [14], 66 min; in series [19], 252 min. For the same compound, the values for the MRT in series [10], in series [15] and in [20] were 20.4 min, 50.4 min and 252 min, respectively. Further, the time to peak (Tmax) in series [13] and in series [18] was 30 min in each case. The same compound registered a bioavailability in series [16] of 41%.

Regarding `Nc1nc(N2CCC(N(CCc3ccc(Cl)cc3)Cc3cccc(C(F)(F)F)c3)CC2)n[nH]1`, the IC50 was determined as 12 nM in [3], 310 nM on Chitotriosidase-1 and 2700 nM in series [2]. The compound further registered an AUC(0-inf) in series [1] of 13700 ng·h/mL. In series [4], this compound had a Cmax of 1600 ng/mL.

With `CN1C[C@H](Cc2ccc(Cl)cc2)N(C2CCN(c3nnc(N)[nH]3)CC2)Cc2cc(Cl)ccc21`, the figures for the IC50 (in series [3]; on Chitotriosidase-1; in series [2]) were 0.7 nM, 420 nM and 800 nM, respectively.

`C=C1COC[C@H](Cc2ccc(Cl)cc2)N(C2CCN(c3nnc(N)[nH]3)CC2)C1`: the IC50 in series [3] stood at 12 nM; on Chitotriosidase-1, 350 nM.

Regarding `Nc1nc(N2CCC(N(Cc3ccccc3)[C@H](CO)Cc3ccc(Cl)cc3)CC2)n[nH]1`, the IC50 came to 245 nM in series [3], 18000 nM at Chitotriosidase-1 and 2900 nM in series [2].

Consider `Nc1nc(N2CCC(N(CCc3ccc(Cl)cc3)Cc3cc(F)ccc3F)CC2)n[nH]1`, for which the IC50 in series [3] came to 5 nM; at Chitotriosidase-1, 277 nM. In addition, the AUC(0-inf) in series [1] turned out to be 2400 ng·h/mL. Further, the Cmax in series [4] was determined as 600 ng/mL.

Turning to `Nc1nc(N2CCC(N(CCc3ccc(Cl)cc3)Cc3ccc(Cl)cc3)CC2)n[nH]1`, the IC50 in series [3] was 4 nM; at Chitotriosidase-1, 90 nM; in [2], 400 nM. The AUC(0-inf) in [1] came to 7000 ng·h/mL.

Turning to `N#Cc1ccc2c(c1)CN(C1CCN(c3n[nH]c(N)n3)CC1)[C@@H](Cc1ccc(Cl)cc1)CO2`, the IC50 in series [3] was 49 nM; at Chitotriosidase-1, 7300 nM; in series [2], 23000 nM.

Regarding `Nc1nnc(N2CCC(N3Cc4ccncc4OC[C@@H]3Cc3ccc(Cl)cc3)CC2)[nH]1`, the IC50 is 55 nM in [3], 4400 nM on Chitotriosidase-1 and 50000 nM in series [2].

Take `Nc1nc(N2CCC(N3Cc4cnccc4OC[C@@H]3Cc3ccc(Cl)cc3)CC2)n[nH]1`: the IC50 was 290 nM in series [3], 18000 nM at Chitotriosidase-1 and 17000 nM in series [2].

`Nc1nnc(N2CCC(N3Cc4cc(F)ccc4OC[C@@H]3Cc3ccc(Cl)cc3)CC2)[nH]1`: the IC50 in series [3] was found to be 7 nM; at Chitotriosidase-1, 930 nM.

Consider `Nc1nc(N2CCC(N3Cc4cccnc4OC[C@@H]3Cc3ccc(Cl)cc3)CC2)n[nH]1`, for which the IC50 in series [3] was 30 nM; on Chitotriosidase-1 it was 2400 nM; in [2], over 50000 nM.

In the case of `Nc1nc(N2CCC(N(CCc3ccc(Cl)cc3)Cc3cccc(Cl)c3)CC2)n[nH]1`, the IC50 in [3] was determined as 6 nM; at Chitotriosidase-1 it was 176 nM; in [2], 3700 nM. The AUC(0-inf) in series [1] is 7800 ng·h/mL. The same compound displayed a Cmax in [4] of 780 ng/mL.
